Measurements as given in patent US20220142948A1, “COMPOSITIONS AND METHODS FOR MODULATING METABOLIC REGULATORS OF T CELL PATHOGENICITY” (The Broad Institute, Inc., priority 2019, published 2022).
“Also recorded” adds a separate entry of the source.

What was measured:
[1] = tested on: Th17 cells (Th17n, Th17p); assay: Protein, phospho-protein and histone mark analysis by flow cytometry; type: cell-based, mouse
Experimental: Proliferation was assessed by staining with CellTrace Violet (Thermo Fisher Scientific) per manufacturer's instructions. Apoptosis was assessed using Annexin V staining kit (BioLegend). Phosphorylation of proteins to determine cell signaling was performed with BD Phosflow buffer system (BD bioscience) as per manufacturer's instructions.
T cell differentiation culture and flow cytometry. Naïve CD4+CD44-CD62L+CD25− T cells were sorted using BD FACSAria sorter and activated with plate-bound anti-CD3 (1 μg/ml) and antiCD28 antibodies (1 μg/ml) in the presence of cytokines at a concentration of 5×10^5 cells/ml. For T cell differentiations the following combinations of cytokines were used: pathogenic Th17: 25 ng/ml rmIL-6, 20 ng/ml rmIL-1b (both Miltenyi Biotec) and 20 ng/ml rmIL-23 (R&D systems); non-pathogenic Th17: 25 ng/ml rmIL-6 and 2 ng/ml of rhTGFb1 (Miltenyi Biotec); iTreg: 2 ng/ml of rhTGFb1; Th1: 20 ng/ml rmIL-12 (R&D systems); Th2: 20 ng/ml rmIL-4 (Miltenyi Biotec). Intracellular cytokine staining was performed after incubation for 4-6h with Cell Stimulation cocktail plus Golgi transport inhibitors (Thermo Fisher Scientific) using the BD Cytofix/Cytoperm buffer set (BD Biosciences) per manufacturer's instructions. Transcription factor staining was performed using the Foxp3/Transcription Factor Staining Buffer Set (eBioscience). Proliferation was assessed by staining with CellTrace Violet (Thermo Fisher Scientific) per manufacturer's instructions. Apoptosis was assessed using Annexin V staining kit (BioLegend). Phosphorylation of proteins to determine cell signaling was performed with BD Phosflow buffer system (BD bioscience) as per manufacturer's instructions.

[2] = tested on: cellular polyamines in Th17p, Th17n and iTregs; assay: Total cellular polyamine content (enzymatic assay, Total Polyamine Assay Kit); type: cell-based, mouse
Excerpt: Polyamine ELISA. Cell pellets of in vitro differentiated cells were frozen down and further processed with the Total Polyamine Assay Kit (BioVision Inc.) according to the manufacturer's instructions.

[3] = tested on: experimental autoimmune encephalomyelitis (EAE); assay: Active EAE (MOG35-55/CFA immunization) with DFMO in drinking water; type: in vivo, mouse
Experimental: Experimental Autoimmune Encephalomyelitis (EAE). […] Equivalent of 40 μg MOG peptide was injected per mouse subcutaneously followed by pertussis toxin injection intravenously on day 0 and day 2 of immunization. Mice were treated with 0.5% DFMO in drinking water for 10 days as indicated. DFMO was replenished every third day.
Experimental Autoimmune Encephalomyelitis (EAE). […] Equivalent of 40 μg MOG peptide was injected per mouse subcutaneously followed by pertussis toxin injection intravenously on day 0 and day 2 of immunization. Mice were monitored and assigned grades for clinical signs of EAE using the following scoring system: 0, healthy; 1, limp tail; 2, impaired righting reflex or ataxic gait; 3, hind limb paralysis; 4, total limb paralysis; 5, moribund or death. Mice with a score of >4 were euthanized. If mice died during the course of the experiment, their clinical score of 5 was included in the analysis for the remainder of the experiment.

[4] = tested on: PGAM in Th17n and Th17p cells; assay: 13C-glucose carbon tracing by LC/MS; type: cell-based, mouse
Experimental: For carbon tracing experiments Th17 cells were differentiated as described. Thereafter, cells were washed and cultured in media supplemented with 8 mM [U-13C]-glucose for 15 min or 3 hrs.
Let |Ci| be the number of carbon atoms in metabolite i, and let xc,i,j be the measured signal of metabolite i in sample j (subsequent to all normalization and QC procedures) in which there are exactly c 13C atoms. The comparisons of carbon flows are based on the statistic yi,j=(Σt=0^|C^i^|t·xt,i,j)/(|Ci|·Σt=0^|C^i^|xt,i,j)
which measures the 13C ratio of the total carbon contents for metabolite i in sample j.
To find metabolites with differential 13C relative abundance, Applicants computed the ratio yi,j of 13C out of the total carbon contents for each metabolite i in sample j. Let |Ci| be the number of carbon atoms in metabolite i, and let xc,i,j be the measured signal of metabolite i in sample j (subsequent to all normalization and QC procedures) in which there are exactly c 13C atoms.

[5] = tested on: experimental autoimmune encephalomyelitis (EAE); assay: Adoptive transfer EAE with 2D2 TCR-transgenic Th17 cells differentiated in the presence of inhibitor; type: in vivo, mouse
Excerpt: For adoptive transfer EAE, naïve 2D2 transgenic T cells were sorted and differentiated into Th17n cells+/−EGCG or Th17p+/−DHEA as described for three days followed by a resting phase in the presence of IL-23 alone for 2 days. Cells were then harvested and restimulated with plate-bound anti-CD3 and anti-CD28 for 2 days prior to transfer. 2-8 million cells were transferred per mouse intravenously.
For adoptive transfer EAE, naive T cells (CD4+CD44-CD62L+CD25-) were isolated from 2D2 TCR-transgenic mice and activated with anti-CD3 ([…]) and anti-CD28 ([…]) in the presence of differentiation cytokines for 68h. Cells were rested for 2 days and restimulated with plate-bound anti-CD3 (0.5 mg/ml for pathogenic condition; […] for non-pathogenic condition) and anti-CD28 ([…]) for 2 days prior to transfer. Equal number (2 to 8 million) cells were transferred per mouse intravenously.

NCCC[C@](N)(C(=O)O)C(F)F [DFMO, 2-(difluoromethyl)ornithine]
total Stat3 protein levels [1]: not total Stat3 protein levels
H3K4 trimethylation ([1]; Th17 cells): promoted
H3K9 trimethylation ([1]; Th17 cells): promoted
H3K27 trimethylation ([1]; Th17 cells): promoted
pStat3 ([1]; Th17 cells): does not seem to alter; also recorded: did not alter; also recorded: inconsistently regulated
pStat3 ([1]; Th17p cells): decreased
pFoxo1(S256) ([1]; both types of Th17 cells): promoted
polyamine concentration ([2]; Th17n cells): decrease; also recorded: suppression of polyamines
polyamine concentration ([2]; Th17p cells): decrease; also recorded: suppression of polyamines
polyamine concentration ([2]; iTregs): decrease; also recorded: suppression of polyamines
EAE clinical score, onset and severity ([3]; 0.5% DFMO in drinking water for 10 days): effective in reducing EAE; also recorded: decreases the EAE score; also recorded: delays EAE onset; also recorded: significantly delayed the onset and severity of EAE; also recorded: significant impact in curtailing EAE
Foxp3+CD4+ T cells (Tregs) ([3]; lymphocytes isolated from CNS): promotes Tregs; also recorded: increased frequency
frequency of cytokine producing cells ([3]; lymphocytes isolated from CNS): no difference

epigallocatechin-3-gallate [EGCG]
13C contents of 2PG ([4]; Th17n and Th17p): decrease; also recorded: disturbs
13C ratio of 2PG after EGCG ([4]; Th17p): 33%
optic neuritis/perineuritis in host mice ([5]; EGCG on Th17n, DHEA on Th17p): promoted
EAE severity ([5]; Th17n cells with IL-23 in differentiation culture, vs IL-23+solvent): significantly more severe EAE
number of CNS lesions (meninges and parenchyma) ([5]; Th17n transfer): increased number of CNS lesions
Wallerian degeneration in proximal spinal nerve roots ([5]; mouse, in vivo): only experimental group to produce Wallerian degeneration; also recorded: induce Wallerian degeneration; also recorded: greater
EAE incidence rate ([5]; recipients of EGCG-treated Th17n cells, control group 0/12): 10/12
meningeal inflammation ([5]; vs. Control mice): greater meningeal inflammation
